Test results published in EP4001271A1, “CRYSTALLINE FORM OF 2-CHLORO-N-CYCLOPROPYL-5-[1-[2,6-DICHLORO-4-[1,2,2,2-TETRAFLUORO-1- (TRIFLUOROMETHYL)ETHYL]PHENYL]PYRAZOL-4-YL]-N-METHYL-PYRIDINE-3-CARBOXAMIDE” (Bayer Aktiengesellschaft, priority 2020, dated 2022).
Like-named read-outs stand apart in the source and are kept apart here. One block for each molecule: values may come before it.

What was measured:
Type in all cases: physicochemical
[1] = Quantitative solubility in solvents, stepwise solvent addition with visual check; conditions: read-out: solubility (concentration in solvent)
Protocol: The solubility of the active provided in Example 1 was further investigated in various solvents (entry 1 to 14 of Table 6). For the determination of the quantitative solubility, the respective solvent(-mixture) was added to approx. 40 mg of the solid, up to a maximum solvent addition of 2 mL in 50 - 200 µL steps. The vials were sealed between each addition of the solvent and the solubility was checked visually. […] Optically clear solutions were filtered via a so-called syringe prefilter and evaporated to dryness at different temperatures. Furthermore, cooling crystallizations were carried out. Undissolved substances were stirred for one week at room temperature in the respective anti-solvent. Table 5. Selection of solvents and anti-solvents
Based on the solvents and anti-solvents from Table 5, crystallization experiments, listed in Table 6, were carried out to obtain new solid forms of the active provided in Example 1. X-ray powder diffraction was used to assess whether a new phase has been formed.

[2] = Storage experiment, influence of temperature on stability of crystalline form A (HPLC purity, XRD form); conditions: for Purity / remaining at 672 h / remaining at 2016 h / remaining at 4032 h: HPLC, 1 mg/2mL ACN; for remaining at 672 h / remaining at 2016 h / remaining at 4032 h: solid storage
Protocol: (§1) For Powder X-Ray Diffraction (XRD) the samples were placed into standard glass capillaries (∅ = 0.7 mm). The measurements were performed at room temperature with a D8 Bruker Advance Diffractometer (Cu-Kα1 = 1.5406 Å, Johansson primary beam monochromator, position sensitive detector) in transmission mode with rotation of the sample. Data were collected in a two-theta range of 2 - 38°. The tube voltage and current were 40 kV and 40 mA, respectively. [table] [table] Storage experiments in different environments (25°C, 50°C, 25°C/85 % RH) were performed to investigate the influence of temperature and moisture on the stability of crystalline form A of the compound of formula (I). […] Two samples of crystalline form A were stored at 25°C and 50°C, respectively (see Table 7). The samples were analyzed after 0, 1, 3, and 6 months by DSC, TGA, spectroscopy, X-ray powder diffraction, and HPLC (measurements for chemical stability). […] Exemplarily, the HPLC results are disclosed in Table 7. Table 7. Influence of temperature after four, 12, and 24 weeks. Purity determined by HPLC. ACN denotes acetonitrile. *entry 16 of Table 6

[3] = Storage experiment, influence of humidity on stability of crystalline form A (HPLC purity, XRD form)
Protocol: as §1, with “25°C/approx. 85 % rel. humidity” for “25°C and 50°C, respectively”, “8).” for “7).”, “8.” for “7.”, “humidity 0, 1, 3” for “temperature after four, 12,”, “6 months.” for “24 weeks.”

[4] = DVS water sorption study (hydrate formation); conditions: 0 to 90% RH and back in 10% increments
Protocol: The water sorption was determined using a DVS Resolution (London, UK) gravimetric sorption analyzer. The sample was dried at 0% relative humidity for 1000 minutes, after which the dry mass was recorded. Humidity was ramped in 10% increments to 90% RH and then back to 0% RH. The equilibrium criterion was set to a relative mass change of dm/dt=0.002%/minute.

- solubility ([1]; 3-methyl-1-butanol, organic solvent or mixture, 3-methyl-1-butanol, entry 9, evaporation 50°C): 21 mg/mL
- solubility ([1]; acetonitrile, organic solvent or mixture, acetonitrile, entry 14, evaporation at ambient conditions): 30 mg/mL
- solubility ([1]; cyclohexane, organic solvent or mixture, cyclohexane (anti-solvent, not completely dissolved), entry 8, slurry 1 week): 19 mg/mL
- solubility ([1]; ethanol, organic solvent or mixture, EtOH, entry 5, evaporation at ambient conditions): 25 mg/mL
- solubility ([1]; heptane, organic solvent or mixture, heptane (anti-solvent, not completely dissolved), entry 7, slurry 1 week): 19 mg/mL
- solubility ([1]; isopropyl alcohol, organic solvent or mixture, isopropyl alcohol, entry 1, clear solution, evaporation at ambient conditions): 17 mg/mL
- solubility ([1]; isopropyl alcohol/propylene carbonate 65:35, organic solvent or mixture, isopropyl alcohol/propylene carbonate 65:35 %w/w, entry 3, slurry 1 week): 268 mg/mL
- solubility ([1]; isopropyl alcohol/propylene carbonate 65:35, organic solvent or mixture, isopropyl alcohol/propylene carbonate 65:35 %w/w, entry 4, evaporation 50°C): 93 mg/mL
- solubility ([1]; propylene carbonate, organic solvent or mixture, propylene carbonate, entry 2, slurry 1 week): 276 mg/mL
- solubility ([1]; water, H2O (anti-solvent, not completely dissolved), entry 6, slurry 1 week): 19 mg/mL
SMILES: CN(C(=O)c1cc(-c2cnn(-c3c(Cl)cc(C(F)(C(F)(F)F)C(F)(F)F)cc3Cl)c2)cnc1Cl)C1CC1 [compound of formula (I), 2-Chloro-N-cyclopropyl-5-[1-[2,6-dichloro-4-[1,2,2,2-tetrafluoro-1-(trifluoromethyl)ethyl]phenyl]pyrazol-4-yl]-N-methyl-pyridine-3-carboxamide]

- phase transition on storage ([2]; 25°C and 50°C, after twelve weeks): no phase transition
- change in DSC, TGA, spectroscopy, X-ray powder diffraction and HPLC measurements on storage ([2]; 25°C and 50°C, after 0, 1, 3 and 6 months): did not result in a significant change
- Purity ([2]; 25 °C, 4 weeks, 40320 min, listed as 16*): 99.09%
- Purity ([2]; 25 °C, 12 weeks, 120960 min, listed as 16*): 99.23%
- Purity ([2]; 50 °C, 12 weeks, 120960 min, listed as 16*): 99.25%
- Purity ([2]; 50 °C, 24 weeks, 241920 min, listed as 16*): 99.34%
- Purity ([2]; no storage (initial value)): 99.54%
- remaining at 672 h ([2]; 25 °C, 4 weeks): 98.3%
- remaining at 2016 h ([2]; 25 °C, 12 weeks): 99.3%
- remaining at 4032 h ([2]; 25 °C, 24 weeks): 99.4%
- remaining at 672 h ([2]; 50 °C, 4 weeks): 99.1%
- remaining at 2016 h ([2]; 50 °C, 12 weeks): 99.5%
- remaining at 4032 h ([2]; 50 °C, 24 weeks): 99.4%
- Purity ([3]; 25 °C, 85% RH, 4 weeks, HPLC, 1 mg/2mL ACN, 40320 min, listed as 16*): 99.10%
- Purity ([3]; 25 °C, 85% RH, 12 weeks, HPLC, 1 mg/2mL ACN, 120960 min, listed as 16*): 99.25%
- Purity ([3]; 25 °C, 85% RH, 24 weeks, HPLC, 1 mg/2mL ACN, 241920 min, listed as 16*): 99.75%
- phase transition on storage ([3]; 25°C/85 % RH, after twelve weeks): no phase transition
- change in DSC, TGA, spectroscopy, X-ray powder diffraction and HPLC measurements on storage ([3]; 25°C/approx. 85 % rel. humidity, after 0, 1, 3 and 6 months): did not result in a significant change
- Purity ([3]; no storage (initial value), HPLC, 1 mg/2mL ACN): 99.54%
- remaining at 672 h ([3]; solid storage, 85% rh, 25 °C, 4 weeks, HPLC, 1 mg/2mL ACN): 99%
- remaining at 2016 h ([3]; solid storage, 85% rh, 25 °C, 12 weeks, HPLC, 1 mg/2mL ACN): 99.3%
- remaining at 4032 h ([3]; solid storage, 85% rh, 25 °C, 24 weeks, HPLC, 1 mg/2mL ACN): 99.4%
- hydrate formation [4]: does not form hydrates
- hygroscopicity [4]: not hygroscopic
- mass increase over the entire area [4]: negligibly small
SMILES: CN(C(=O)c1cc(-c2cnn(-c3c(Cl)cc(C(F)(C(F)(F)F)C(F)(F)F)cc3Cl)c2)cnc1Cl)C1CC1 [crystalline form A, 2-chloro-N-cyclopropyl-5-[1-[2,6-dichloro-4-[1,2,2,2-tetrafluoro-1-(trifluoromethyl)ethyl]phenyl]pyrazol-4-yl]-N-methyl-pyridine-3-carboxamide]
